Values of other authors, collected in patent publication US20210205417A1, “PH 7 INJECTABLE SOLUTION COMPRISING AT LEAST ONE BASAL INSULIN OF WHICH THE PI IS FROM 5.8 TO 8.5 AND A CO-POLYAMINO ACID BEARING CARBOXYLATE CHARGES AND HYDROPHOBIC RADICALS AND A LIMITED AMOUNT OF M-CRESOL” (ADOCIA, priority 2018, published 2021).

Settings: patients

Substance: insulin glargine
- period over which the hypoglycemic effect is almost constant: 24 h
